Reference: US5985835A, “Desmopressin for nocturia, incontinence and enuresis” (priority 1997, dated 1999)
Like-named read-outs stand apart in the source and are kept apart here.

Key:
Format in all cases: in vivo, human
[1] = system: elderly persons with increased nocturnal diuresis; assay: Pilot study of desmopressin treatment during 48 hours in elderly persons with increased nocturnal diuresis; conditions: desmopressin treatment on two successive days
Experimental: ADH levels were studied in a group of elderly persons who had increased nocturnal diuresis. The levels generally were very low and a pilot study was done to determine the effect of desmopressin treatment during a period of 48 hours. Their nocturnal diuresis had decreased during desmopressin treatment on two successive days. After an evaluation of this study the participants were invited to take part in a two-month treatment with desmopressin ([…]®) 40 μg, given as an intranasal aerosol at 20.00 h. The tests consisted of 7 men (aged 72±4 years) and 14 women (aged 73±6 years). No changes in their way of life and no restriction in fluid intake was prescribed. The study was carried out after one and two months of treatment and one month after the treatment.

[2] = system: patients 60-74 years of age with increased nocturnal frequency due to nocturnal polyuria
Experimental: This example provides efficacy and safety data for oral desmopressin in the treatment of increased frequency due to nocturnal polyuria in the elderly. The study started with a run-in week to establish baseline. An open dose titration, one week each of 0.1 mg, 0.2 mg and 0.4 mg, was performed and followed by a wash-out of 1-2 weeks. Then followed the double-blind, placebo controlled, cross-over part of the study using the dose selected in the dose titration. Placebo and active treatment were given for 14 days each in a randomized order. […] The diagnosis and main criteria for inclusion was a healthy adult patient between 60-74 years of age suffering from increased nocturnal frequency (≥2 nocturnal voids) and a nocturnal urinary output ≥0.9 ml/min. The desmopressin used for the study was […]®, 0.1 mg and 0.2 mg tablets. […] Study duration, including run-in and wash-out periods, was 9 weeks. The criteria for evaluation were: 1. Efficacy: the change in nocturnal diuresis (ml/min), nocturnal micturition episodes and 24-hour diuresis. 2. Safety: changes from baseline in blood pressure, S-sodium, ankle circumference and bodyweight. Incidence of adverse events. The efficacy endpoints during the double blind part of the study were subjected to statistical analysis with an ANOVA model. Sequence effect was tested with the within mean square in the ANOVA. The residuals obtained were plotted against predicted values, normal plots were also produced. The plots were examined for relationship between variance and mean non-normality. Shapiro-Wilks test was performed to assist in these assessments. The difference in effect is presented in 95% confidence intervals for least square means, placebo versus desmopressin. All tests performed used a significance level of α=5%.

[3] = system: elderly persons with increased nocturnal diuresis and decreased ADH secretion; conditions: for Diuresis-day: 08-20 h; for Diuresis-night: 20-08 h
Experimental: They had no cardiac or renal disease or diabetes nor were they receiving diuretics. […] Intravenous specimens for the determination of ADH and NAP were frozen at […]. Plasma ADH was measured as arginine vasopressin by radioimmunoassay after extraction with ethanol. The reference range for plasma ADH was 1-5 pmol 1^-1 with an interassay variability of 15.1% at 0.9 pmol 1^-1 and 6.3% at 1.25 pmol 1^-1. Their nocturnal diuresis had decreased during desmopressin treatment on two successive days. After an evaluation of this study the participants were invited to take part in a two-month treatment with desmopressin ([…]®) 40 μg, given as an intranasal aerosol at 20.00 h. […] No changes in their way of life and no restriction in fluid intake was prescribed. The study was carried out after one and two months of treatment and one month after the treatment. […] Mean values of diuresis and micturitions for the 12-hour periods were calculated (Table 2). At these times also a questionnaire with 12 questions about general wellbeing and sleep was filled in (Table 1). The statistical method used a mean value ± standard deviation. The paired numerical data were analyzed with the 2-sided Student's t-test. Non-numerical data were analyzed with the x'-test.

[4] = oral tablets, titrated dose 0.1-0.4 mg, 14 days, statistically significant
[5] = men, 1 month of 40 μg intranasal
[6] = men, 2 months of 40 μg intranasal
[7] = men, 3 months (one month after treatment)
[8] = women, 1 month of 40 μg intranasal
[9] = women, 2 months of 40 μg intranasal
[10] = women, 3 months (one month after treatment)

Potassium in serum ([3]; in vivo): did not change | Sodium in serum ([3]; in vivo): did not change
SMILES: NC(=O)CC[C@@H]1NC(=O)[C@H](Cc2ccccc2)NC(=O)[C@H](Cc2ccc(O)cc2)NC(=O)CCSSC[C@@H](C(=O)N2CCC[C@H]2C(=O)N[C@H](CCCN=C(N)N)C(=O)NCC(N)=O)NC(=O)[C@H](CC(N)=O)NC1=O [Desmopressin, 1-deamino-8-D-arginine vasopressin]
Nocturnal diuresis [1]: decreased | Tolerability ([2]; in vivo, po): well tolerated | Duration of sleep between voids compared to placebo ([2]; oral tablets, titrated dose 0.1-0.4 mg, 14 days): significantly longer | Nocturnal diuresis compared to placebo [2, 4]: lower | Nocturnal voids compared to placebo [2, 4]: fewer | Nocturnal symptoms ([2]; oral tablets, elderly population): significantly decreases | Number of women who reduced nocturnal diuresis by less than 400 ml ([3]; after one month): 9 women | Number of women who reduced nocturnal diuresis by less than 400 ml ([3]; after two months): 7 women | Total 24-hour diuresis ([3]; during the study): more or less unchanged | Decrease in average diuresis during the night, women versus men ([3]; during the treatment): twice as large in women as in men | Diuresis during the daytime ([3]; during treatment): changed insignificantly | Body weight ([3]; in vivo): did not change | Diuresis-day/night ([3]; men, 0 (before treatment)): 0.67 ± 0.20 | No. of micturitions - night ([3]; men, 0 (before treatment)): 4.3 ± 1.2 | Diuresis-day ([3]; men, 0 (before treatment), mean ± SD): 511 ± 85 mL | Diuresis-night ([3]; men, 0 (before treatment)): 763 ± 42 mL | Diuresis-day Deviation from initial value % ([3]; men, 1 month): -9% | Diuresis-day/night ([3]; men, 1 month): 0.83 ± 0.28 | Diuresis-night Deviation from initial value % ([3]; men, 1 month): -21% | No. of micturitions - night ([3]; men, 1 month): 3.8 ± 1.7 | Diuresis-day [3, 5]: 465 ± 72 mL | Diuresis-night [3, 5]: 603 ± 178 mL | Diuresis-day Deviation from initial value % ([3]; men, 2 months): 2% | Diuresis-day/night ([3]; men, 2 months): 0.91 ± 0.29 | Diuresis-night Deviation from initial value % ([3]; men, 2 months): -20% | No. of micturitions - night ([3]; men, 2 months): 4.5 ± 2.0 | Diuresis-day [3, 6]: 524 ± 117 mL | Diuresis-night [3, 6]: 612 ± 174 mL | Diuresis-day Deviation from initial value % [3, 7]: -14% | Diuresis-day/night [3, 7]: 0.66 ± 0.26 | Diuresis-night Deviation from initial value % [3, 7]: -6% | No. of micturitions - night [3, 7]: 4.1 ± 1.6 | Diuresis-day [3, 7]: 441 ± 68 mL | Diuresis-night [3, 7]: 717 ± 168 mL | Reduction of nocturnal diuresis (all the men) ([3]; men, after both one and two months): less than 400 ml | Decrease in nocturnal diuresis from the initial value ([3]; men, after one month): 21% | Decrease in nocturnal diuresis from the initial value ([3]; men, after two months): 20% | Daytime diuresis ([3]; one month after treatment, both men and women): there remained a reduction | Number of nocturnal micturitions ([3]; women versus men): women were affected most positively | Diuresis-day/night ([3]; women, 0 (before treatment)): 0.84 ± 0.40 | Diuresis-day ([3]; women, 0 (before treatment)): 699 ± 368 mL | Diuresis-night ([3]; women, 0 (before treatment)): 892 ± 361 mL | Diuresis-day Deviation from initial value % ([3]; women, 1 month): 6% | Diuresis-day/night ([3]; women, 1 month): 1.46 ± 0.87 | Diuresis-night Deviation from initial value % ([3]; women, 1 month): -36% | Diuresis-day [3, 8]: 746 ± 368 mL | Diuresis-night [3, 8]: 570 ± 172 mL | Diuresis-day Deviation from initial value % ([3]; women, 2 months): -4% | Diuresis-day/night ([3]; women, 2 months): 1.14 ± 0.36 | Diuresis-night Deviation from initial value % ([3]; women, 2 months): -34% | Diuresis-day [3, 9]: 673 ± 257 mL | Diuresis-night [3, 9]: 592 mL | Diuresis-day Deviation from initial value % [3, 10]: -14% | Diuresis-day/night [3, 10]: 0.89 ± 0.36 | Diuresis-night Deviation from initial value % [3, 10]: -17% | Diuresis-day [3, 10]: 587 ± 173 mL | Diuresis-night [3, 10]: 739 ± 260 mL | Decrease in nocturnal diuresis from the initial value ([3]; women, after one month): 36% | Decrease in nocturnal diuresis from the initial value ([3]; women, after two months): 34% | Less nocturnal diuresis than initial value ([3]; women, one month after the last day of treatment): 17%
